# Laboratory results published in PMC4425616 (Nature medicine, 2015).
# Where two headings read alike, the source gives them in different places.
# How the values were obtained:
# cyclophilin = test: Chymotrypsin coupled PPIase activity assay; assay type: biochemical
# FKBP12 = FKBP12 (Homo sapiens, UniProt P62942); test: Chymotrypsin coupled PPIase activity assay; assay type: biochemical
# Pin1 [1] = biological target: Pin1 (Mus musculus, UniProt Q9QUR7); test: Pin1 protein, mRNA and half-life in MEFs; assay type: cell-based; details: for Pin1 protein half-life: 50 μM, 24 h, cycloheximide chase
# Pin1 [2] = biological target: T1, Pin1 (Homo sapiens, UniProt Q13526); assay type: binding; details: incubation 0.5 hour
# Pin1 WT MEFs = test: MTT cell growth assay; assay type: cell-based, mouse; details: 72 h
# Pin1 KO MEFs = test: MTT cell growth assay; assay type: cell-based, mouse; details: 72 h, compared with WT MEFs
# NIH 3T3 cells = test: Centrosome amplification induced by Pin1 overexpression; assay type: cell-based; details: 72 h
# cyclin D1 promoter = test: Cyclin D1 promoter-driven luciferase reporter assay; assay type: cell-based; details: SKBR3 cells, 72 h
# SKBR3 cells = test: Foci formation assay; assay type: cell-based; details: 48 h
# PML-RARα [3] = test: Immunoblotting for PML-RARα in NB4 cells; assay type: cell-based, human; details: 72 h
# Pin1 [4] = biological target: T1, Pin1; test: Immunostaining of bone marrow of APL patients treated with ATRA; assay type: in vivo
# PML-RARα [5] = test: as above; assay type: in vivo, human
# MCF10A cells = test: Colorimetric MTT assay; assay type: cell-based, human; details: 72 h
# HMLE cells = test: Colorimetric MTT assay; assay type: cell-based, human; details: 72 h
# [6] = system: Pin1 and its substrate oncogenes and tumor suppressors; assay type: cell-based, human; details: 72 hr
# MDA-MB-231 cells = test: MDA-MB-231 xenograft in nude mice; assay type: in vivo
# MDA-MB-468 cells = test: MDA-MB-468 xenograft in nude mice; assay type: in vivo; details: ATRA-releasing pellets
# [7] = standard doses in human patients; cited from earlier work
# [8] = system: APL cells isolated from hCG-PML-RARα transgenic mice; details: 3 weeks treatment
# Pin1 [9] = biological target: T1, Pin1; test: Immunoblotting for Pin1 in NB4 cells; assay type: cell-based; details: 72 h
# human APL NB4 cells = test: APL cell differentiation; assay type: cell-based; details: 72 h
# breast cancer cells = test: Growth and Pin1 degradation in breast cancer cells, combinations with ATRA; assay type: cell-based, human
# Pin1 [10] = biological target: T1, Pin1; test: Photoaffinity labeling of Pin1 with [3H]ATRA; assay type: binding; details: SDS gels
# Pin1 [11] = biological target: T1, Pin1; test: Binding of
# [12] = biological target: FKBP12 (FK506-binding protein 12) (Homo sapiens, UniProt P62942); test: Binding of fluorescently-labeled pTide to FKBP12
# Pin1 [13] = biological target: T1, Pin1; details: cited from earlier work
# [14] = three ATRA-sensitive cancer cell lines
# Pin1 (Mus musculus, UniProt Q9QUR7), sequence (Q9QUR7 whole entry): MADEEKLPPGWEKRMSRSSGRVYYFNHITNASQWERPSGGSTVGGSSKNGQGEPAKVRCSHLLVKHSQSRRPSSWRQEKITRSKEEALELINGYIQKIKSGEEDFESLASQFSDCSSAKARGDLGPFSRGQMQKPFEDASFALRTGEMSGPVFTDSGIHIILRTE
# T1 sequence (Q13526 whole entry): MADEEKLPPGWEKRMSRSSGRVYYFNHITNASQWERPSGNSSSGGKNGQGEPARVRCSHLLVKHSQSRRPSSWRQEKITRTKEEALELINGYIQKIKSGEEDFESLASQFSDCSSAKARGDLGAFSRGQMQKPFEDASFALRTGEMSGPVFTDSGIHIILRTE
# FKBP12, sequence (P62942 whole entry, species assumed): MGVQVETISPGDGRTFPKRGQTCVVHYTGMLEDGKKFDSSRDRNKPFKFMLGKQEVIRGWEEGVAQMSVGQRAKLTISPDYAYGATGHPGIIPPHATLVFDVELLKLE
# FKBP12 (FK506-binding protein 12), sequence (P62942 whole entry, species assumed): as above
molecule,measurement,setting,value
"CC1=C(/C=C/C(C)=C/C=C/C(C)=C\C(=O)O)C(C)(C)CCC1 [13cRA, 13-cis-retinoic acid]",inhibition of cyclophilin PPIase activity,cyclophilin,neither inhibited
same,inhibition of FKBP12 PPIase activity,FKBP12,neither inhibited
same,Pin1 protein half-life,Pin1 [1],reduced Pin1 protein half-life
"CC1=C(/C=C/C(C)=C/C=C/C(C)=C/C(=O)O)C(C)(C)CCC1 [ATRA, all-trans retinoic acid]",Pin1 binding (FP assay),Pin1 [2],most potent
same,inhibition of cyclophilin PPIase activity,cyclophilin,neither inhibited
same,inhibition of FKBP12 PPIase activity,FKBP12,neither inhibited
same,inhibition of growth,Pin1 WT MEFs,Relatively high concentrations of ATRA were required
same,inhibition of growth,Pin1 KO MEFs,more resistant to ATRA
same,Pin1 protein half-life,Pin1 [1],reduced Pin1 protein half-life
same,Pin1 mRNA levels,"Pin1 [1]; 72 h, quantitative RT-PCR",no obvious effects
same,Pin1 protein abundance,"Pin1 [1]; WT Pin1, 72 h, immunoblotting",dose-dependently down-regulated
same,inhibition of Pin1 overexpression-induced centrosome amplification,NIH 3T3 cells,dose-dependently and fully inhibited
same,inhibition of Pin1-induced activation of the cyclin D1 promoter,cyclin D1 promoter,dose-dependently and fully inhibited
same,inhibition of Pin1-enhanced foci formation,SKBR3 cells,dose-dependently and fully inhibited
same,PML-RARα abundance,PML-RARα [3],dose-dependently reduced PML-RARα
same,Pin1 remaining after treatment,Pin1 [4]; 3 days of ATRA treatment,~ 40%
same,Pin1 remaining after treatment,Pin1 [4]; 10 days of ATRA treatment,< 10%
same,PML-RARα remaining after treatment,PML-RARα [5]; 3 days of ATRA treatment,~ 40%
same,PML-RARα remaining after treatment,PML-RARα [5]; 10 days of ATRA treatment,< 10%
same,"cell proliferation, susceptibility to ATRA",MCF10A cells,highly resistant to ATRA
same,"cell proliferation, susceptibility to ATRA",HMLE cells,highly resistant to ATRA
same,effects on Pin1 and substrate proteins,[6]; MCF10A cells,no appreciable effects
same,"abundance of Pin1 and substrate oncogenes (cyclin D1, HER2, ERα, Akt, NFκB p65, c-Jun, PKM2)",[6]; [14],dose-dependent decrease in abundance of Pin1 and its substrate oncogenes
same,"abundance of Pin1 substrate tumor suppressors (Smad2/3, SMRT)",[6]; [14],increase in abundance of Pin1 substrate tumor suppressors
same,antitumor activity,MDA-MB-231 cells; 33.0 μmol/kg intraperitoneally 3 times a week for 8 weeks,only modest antitumor activity
same,growth of tumors from MDA-MB-231 cells stably expressing Pin1,MDA-MB-231 cells; ATRA implants for 7 weeks,effectively inhibited by ATRA in a dose-dependent manner
same,abundance of Pin1 and cyclin D1 in tumors,MDA-MB-231 cells; ATRA-releasing pellets,reduced abundance of Pin1 and its substrate cyclin D1
same,abundance of Pin1 and cyclin D1 in tumors,MDA-MB-468 cells,reduced abundance of Pin1 and its substrate cyclin D1
same,drug concentration produced,[7],1200 nM
same,PML-RARα in the bone marrow,[8],effectively reduced PML-RARα in the bone marrow
same,Pin1 levels in the bone marrow,[8],reduced Pin1 levels in the bone marrow
same,spleen weights,[8],spleen weights nearly at basal levels
O=C(O[C@@H]1Cc2c(O)cc(O)cc2O[C@@H]1c1cc(O)c(O)c(O)c1)c1cc(O)c(O)c(O)c1 [EGCG],PML-RARα abundance,PML-RARα [3],dose-dependently reduced PML-RARα
same,Pin1 abundance,Pin1 [9],inhibited Pin1 without degrading it
same,induction of APL cell differentiation,human APL NB4 cells,neither Pin1 inhibitors nor Pin1 shRNA induced human APL cell differentiation
same,PML-RARα in the bone marrow,[8],effectively reduced PML-RARα in the bone marrow
same,condition of treated mice,[8],rather sick
same,spleen weights,[8],spleen weights nearly at basal levels
O=C1C=CC(=O)c2c(O)cccc21 [Juglone],PML-RARα abundance,PML-RARα [3],dose-dependently reduced PML-RARα
same,Pin1 abundance,Pin1 [9],inhibited Pin1 without degrading it
same,induction of APL cell differentiation,human APL NB4 cells,neither Pin1 inhibitors nor Pin1 shRNA induced human APL cell differentiation
same,PML-RARα in the bone marrow,[8],effectively reduced PML-RARα in the bone marrow
same,condition of treated mice,[8],rather sick
same,spleen weights,[8],spleen weights nearly at basal levels
CCOC(=O)CN1C(=O)c2ccc3c4c(ccc(c24)C1=O)C(=O)N(CC(=O)OCC)C3=O [PiB],PML-RARα abundance,PML-RARα [3],dose-dependently reduced PML-RARα
same,Pin1 abundance,Pin1 [9],inhibited Pin1 without degrading it
same,induction of APL cell differentiation,human APL NB4 cells,neither Pin1 inhibitors nor Pin1 shRNA induced human APL cell differentiation
CCCCCCCOc1cc2c(cc1/C(C)=C/c1ccc(C(=O)O)cc1)C(C)(C)CCS2(=O)=O [Ro-415253],Pin1 binding (FP assay),Pin1 [2],minimal Pin1 binding
same,effect on the ability of ATRA to induce Pin1 degradation or inhibit proliferation,breast cancer cells,neither had obvious effects
"CC1=C(/C=C/C(C)=C/C=C/C(C)=C/C(=O)O)C(C)(C)CCC1 [[^3H]-ATRA, all-trans-[11,12-3H]retinoic acid]",Kd,Pin1 [10],800 nM
C=C(c1ccc(C(=O)O)cc1)c1cc2c(cc1C)C(C)(C)CCC2(C)C [bexarotene],Pin1 binding (FP assay),Pin1 [2],only marginal Pin1 binding
CC1=C(/C=C/C(C)=C/C=C/C(C)=C/C(=O)Nc2ccc(O)cc2)C(C)(C)CCC1 [fenretinide],Pin1 binding (FP assay),Pin1 [2],only marginal Pin1 binding
Clc1cccc(C(c2ccc3[nH]cnc3c2)n2ccnc2)c1 (centres unmarked) [liarazole],effect in combination with ATRA on cell growth,breast cancer cells,generally additive effects with ATRA
CC1=C(/C=C/C(C)=C/C=C/C(C)=C/C=O)C(C)(C)CCC1 [retinal],Pin1 binding (FP assay),Pin1 [2],totally inactive
CC1=C(/C=C/C(C)=C/C=C/C(C)=C/CO)C(C)(C)CCC1 [retinol],Pin1 binding (FP assay),Pin1 [2],totally inactive
CC(=O)OC/C=C(C)/C=C/C=C(C)/C=C/C1=C(C)CCCC1(C)C [retinyl acetate],Pin1 binding (FP assay),Pin1 [2],totally inactive
Bth-D-phos.Thr-Pip-Nal [pTide],binding of fluorescently-labeled pTide to Pin1,Pin1 [11],bound to Pin1
same,binding of fluorescently-labeled pTide to FKBP12,[12],not to FKBP12
same,Kd,Pin1 [13],1.2 nM
